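1) Cells in 96-well plates. 2) Compound, 48 h, 5 concentrations. 3) Linear interpolation between surrounding doses. 4) Unreached endpoint = highest concentration. GI50 = concentration required for 50% inhibition of growth.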 Activity calls are given as the source filed them. Rule as the data show it: active = GI50 up to about 1.1 µM and inactive = higher.
Tests used:
Experiment in all cases: DTP human tumour cell line panel, 48 h
786-0 = system: 786-0
A549 = system: A549
ACHN = system: ACHN
BT-549 = system: BT-549
CAKI-1 = system: CAKI-1
DU-145 = system: DU-145
HCC 2998 = system: HCC 2998
HCT-116 = system: HCT-116
HCT-15 = system: HCT-15
HL-60 = system: HL-60
HOP-62 = system: HOP-62
HT-29 = system: HT-29
Hs-578T = system: Hs-578T
IGROV-1 = system: IGROV-1
K562 = system: K562
KM12 = system: KM12
LOX IMVI = system: LOX IMVI
M14 = system: M14
MCF7 = system: MCF7
MDA-MB-231 = system: MDA-MB-231
MDA-MB-435 = system: MDA-MB-435
MDA-N = system: MDA-N
MOLT-4 = system: MOLT-4
Malme-3M = system: Malme-3M
NCI-H226 = system: NCI-H226
NCI-H23 = system: NCI-H23
NCI-H460 = system: NCI-H460
NCI-H522 = system: NCI-H522
NCI/ADR-RES = system: NCI/ADR-RES
OVCAR-3 = system: OVCAR-3
OVCAR-5 = system: OVCAR-5
OVCAR-8 = system: OVCAR-8
PC-3 = system: PC-3
RPMI-8226 = system: RPMI-8226
RXF 393 = system: RXF 393
SF-268 = system: SF-268
SF-295 = system: SF-295
SF-539 = system: SF-539
SK-MEL-28 = system: SK-MEL-28
SK-MEL-2 = system: SK-MEL-2
SK-MEL-5 = system: SK-MEL-5
SN12C = system: SN12C
SNB-19 = system: SNB-19
SNB-75 = system: SNB-75
SR = system: SR
SW-620 = system: SW-620
T47D = system: T47D
TK-10 = system: TK-10
U-251 = system: U-251
UACC-257 = system: UACC-257
UACC-62 = system: UACC-62
UO-31 = system: UO-31
CCRF-CEM = system: CCRF-CEM
COLO 205 = system: COLO 205
EKVX = system: EKVX
OVCAR-4 = system: OVCAR-4
SK-OV-3 = system: SK-OV-3
HOP-92 = system: HOP-92

Cc1ccc(-c2n[nH]c(=O)n2N2C(=O)c3ccccc3C2=O)cc1
GI50 (786-0): > 100 µM (inactive)
GI50 (A549): > 100 µM (inactive)
GI50 (ACHN): > 100 µM (inactive)
GI50 (BT-549): > 100 µM (inactive)
GI50 (CAKI-1): > 100 µM (inactive)
GI50 (DU-145): > 100 µM (inactive)
GI50 (HCC 2998): > 100 µM (inactive)
GI50 (HCT-116): > 100 µM (inactive)
GI50 (HCT-15): > 100 µM
GI50 (HL-60): > 100 µM (inactive)
GI50 (HOP-62): > 100 µM (inactive)
GI50 (HT-29): > 100 µM (inactive)
GI50 (Hs-578T): > 100 µM (inactive)
GI50 (IGROV-1): > 100 µM (inactive)
GI50 (K562): > 100 µM (inactive)
GI50 (KM12): > 100 µM (inactive)
GI50 (LOX IMVI): > 100 µM (inactive)
GI50 (M14): > 100 µM (inactive)
GI50 (MCF7): > 100 µM (inactive)
GI50 (MDA-MB-231): > 100 µM (inactive)
GI50 (MDA-MB-435): > 100 µM (inactive)
GI50 (MDA-N): > 100 µM (inactive)
GI50 (MOLT-4): > 100 µM (inactive)
GI50 (Malme-3M): > 100 µM (inactive)
GI50 (NCI-H226): > 100 µM (inactive)
GI50 (NCI-H23): > 100 µM (inactive)
GI50 (NCI-H460): > 100 µM (inactive)
GI50 (NCI-H522): > 100 µM (inactive)
GI50 (NCI/ADR-RES): > 100 µM (inactive)
GI50 (OVCAR-3): > 100 µM (inactive)
GI50 (OVCAR-5): > 100 µM (inactive)
GI50 (OVCAR-8): > 100 µM (inactive)
GI50 (PC-3): > 100 µM (inactive)
GI50 (RPMI-8226): > 100 µM (inactive)
GI50 (RXF 393): > 100 µM (inactive)
GI50 (SF-268): > 100 µM (inactive)
GI50 (SF-295): > 100 µM (inactive)
GI50 (SF-539): > 100 µM (inactive)
GI50 (SK-MEL-28): > 100 µM (inactive)
GI50 (SK-MEL-2): > 100 µM (inactive)
GI50 (SK-MEL-5): > 100 µM (inactive)
GI50 (SN12C): > 100 µM (inactive)
GI50 (SNB-19): > 100 µM (inactive)
GI50 (SNB-75): > 100 µM (inactive)
GI50 (SR): > 100 µM (inactive)
GI50 (SW-620): > 100 µM (inactive)
GI50 (T47D): 68.9 µM (inactive)
GI50 (TK-10): > 100 µM (inactive)
GI50 (U-251): > 100 µM (inactive)
GI50 (UACC-257): > 100 µM (inactive)
GI50 (UACC-62): > 100 µM (inactive)
GI50 (UO-31): > 100 µM (inactive)

CCOP(=O)(OCC)C(C)(CC)N/C(N)=N/C#N (stereo not drawn)
GI50 (786-0): > 100 µM (inactive)
GI50 (A549): > 100 µM (inactive)
GI50 (ACHN): > 100 µM (inactive)
GI50 (BT-549): > 100 µM (inactive)
GI50 (CCRF-CEM): > 100 µM (inactive)
GI50 (COLO 205): > 100 µM (inactive)
GI50 (DU-145): > 100 µM (inactive)
GI50 (EKVX): > 100 µM (inactive)
GI50 (HCC 2998): > 100 µM (inactive)
GI50 (HCT-116): > 100 µM (inactive)
GI50 (HCT-15): > 100 µM
GI50 (HL-60): > 100 µM (inactive)
GI50 (HOP-62): > 100 µM (inactive)
GI50 (HT-29): > 100 µM (inactive)
GI50 (Hs-578T): > 100 µM (inactive)
GI50 (IGROV-1): > 100 µM (inactive)
GI50 (K562): > 100 µM (inactive)
GI50 (KM12): > 100 µM (inactive)
GI50 (LOX IMVI): > 100 µM (inactive)
GI50 (M14): > 100 µM (inactive)
GI50 (MCF7): > 100 µM (inactive)
GI50 (MDA-MB-231): > 100 µM (inactive)
GI50 (MDA-MB-435): > 100 µM (inactive)
GI50 (MDA-N): > 100 µM (inactive)
GI50 (MOLT-4): > 100 µM (inactive)
GI50 (Malme-3M): > 100 µM (inactive)
GI50 (NCI-H226): > 100 µM (inactive)
GI50 (NCI-H23): > 100 µM (inactive)
GI50 (NCI-H460): > 100 µM (inactive)
GI50 (NCI/ADR-RES): > 100 µM (inactive)
GI50 (OVCAR-3): > 100 µM (inactive)
GI50 (OVCAR-4): > 100 µM (inactive)
GI50 (OVCAR-5): > 100 µM (inactive)
GI50 (OVCAR-8): > 100 µM (inactive)
GI50 (PC-3): > 100 µM (inactive)
GI50 (RPMI-8226): > 100 µM (inactive)
GI50 (RXF 393): > 100 µM (inactive)
GI50 (SF-268): > 100 µM (inactive)
GI50 (SF-295): > 100 µM (inactive)
GI50 (SF-539): > 100 µM (inactive)
GI50 (SK-MEL-28): > 100 µM (inactive)
GI50 (SK-MEL-2): > 100 µM (inactive)
GI50 (SK-MEL-5): > 100 µM (inactive)
GI50 (SK-OV-3): > 100 µM (inactive)
GI50 (SN12C): > 100 µM (inactive)
GI50 (SNB-19): > 100 µM (inactive)
GI50 (SNB-75): > 100 µM (inactive)
GI50 (SR): > 100 µM (inactive)
GI50 (SW-620): > 100 µM (inactive)
GI50 (T47D): > 100 µM (inactive)
GI50 (TK-10): > 100 µM (inactive)
GI50 (U-251): > 100 µM (inactive)
GI50 (UACC-257): > 100 µM (inactive)
GI50 (UACC-62): > 100 µM (inactive)
GI50 (UO-31): > 100 µM (inactive)

O=S(=O)(O)c1ccc2c(/N=N/c3ccc(Sc4ccc(/N=N/c5c(O)ccc6cc(S(=O)(=O)O)ccc56)cc4)cc3)c(O)ccc2c1
GI50 (786-0): > 100 µM (inactive)
GI50 (A549): > 100 µM (inactive)
GI50 (ACHN): > 100 µM (inactive)
GI50 (BT-549): > 100 µM (inactive)
GI50 (CAKI-1): > 100 µM (inactive)
GI50 (CCRF-CEM): > 100 µM (inactive)
GI50 (COLO 205): > 100 µM (inactive)
GI50 (DU-145): > 100 µM (inactive)
GI50 (EKVX): > 100 µM (inactive)
GI50 (HCC 2998): > 100 µM (inactive)
GI50 (HCT-116): > 100 µM (inactive)
GI50 (HCT-15): > 100 µM
GI50 (HL-60): > 100 µM (inactive)
GI50 (HOP-62): > 100 µM (inactive)
GI50 (HOP-92): > 100 µM (inactive)
GI50 (HT-29): > 100 µM (inactive)
GI50 (Hs-578T): > 100 µM (inactive)
GI50 (IGROV-1): > 100 µM (inactive)
GI50 (K562): > 100 µM (inactive)
GI50 (KM12): > 100 µM (inactive)
GI50 (M14): > 100 µM (inactive)
GI50 (MCF7): > 100 µM (inactive)
GI50 (MDA-MB-231): > 100 µM (inactive)
GI50 (MDA-MB-435): > 100 µM (inactive)
GI50 (MDA-N): > 100 µM (inactive)
GI50 (MOLT-4): > 100 µM (inactive)
GI50 (Malme-3M): > 100 µM (inactive)
GI50 (NCI-H226): > 100 µM (inactive)
GI50 (NCI-H23): > 100 µM (inactive)
GI50 (NCI-H460): > 100 µM (inactive)
GI50 (NCI-H522): > 100 µM (inactive)
GI50 (NCI/ADR-RES): > 100 µM (inactive)
GI50 (OVCAR-3): > 100 µM (inactive)
GI50 (OVCAR-4): > 100 µM (inactive)
GI50 (OVCAR-5): > 100 µM (inactive)
GI50 (OVCAR-8): > 100 µM (inactive)
GI50 (PC-3): > 100 µM (inactive)
GI50 (RPMI-8226): > 100 µM (inactive)
GI50 (RXF 393): > 100 µM (inactive)
GI50 (SF-268): > 100 µM (inactive)
GI50 (SF-295): > 100 µM (inactive)
GI50 (SF-539): > 100 µM (inactive)
GI50 (SK-MEL-28): > 100 µM (inactive)
GI50 (SK-MEL-2): > 100 µM (inactive)
GI50 (SK-MEL-5): > 100 µM (inactive)
GI50 (SK-OV-3): > 100 µM (inactive)
GI50 (SN12C): > 100 µM (inactive)
GI50 (SNB-19): > 100 µM (inactive)
GI50 (SR): > 100 µM (inactive)
GI50 (SW-620): > 100 µM (inactive)
GI50 (T47D): > 100 µM (inactive)
GI50 (TK-10): > 100 µM (inactive)
GI50 (U-251): > 100 µM (inactive)
GI50 (UACC-257): > 100 µM (inactive)
GI50 (UACC-62): > 100 µM (inactive)
GI50 (UO-31): > 100 µM (inactive)

Reference: ChEMBL document CHEMBL1201862, “PubChem BioAssay data set” (2004)
